Laboratory results from US12391685B2, “Inhibitors of RNA-guided nuclease target binding and uses thereof” (THE BROAD INSTITUTE, INC., priority 2018, dated 2025).

Target: SpCas9 (Streptococcus pyogenes serotype M1, UniProt Q99ZW2)
Experiment: eGFP-disruption assay in U2OS.eGFP.PEST cells
Assay type: cell-based, S. pyogenes
Parameters: host or cells: U2OS.eGFP.PEST
Details: screen of structural analogs of BRD7087; 15 μM compound, 24 h, U2OS.eGFP.PEST cells
Experimental: SpCas9 nuclease activity in eGFP-disruption assay. Approximately 200,000 U2OS.eGFP-PEST cells were nucleofected following two different methods either by nucleofecting plasmids or RNP using the SE Cell Line 4D-Nucleofector™ X Kit (Lonza) according to the manufacturer's protocol. In the plasmid nucleofection method, cells were nucleofected either with 440 ng of SpCas9 (Addgene Plasmid #43861) or 400 ng of SpCas9 along with 40 ng of sgRNA (pFYF1320 eGFP Site #1, Addgene Plasmid #47511). Cells nucleofected only with SpCas9-expressing plasmid were used as the transfection control. In the RNP nucleofection method, either […] SpCas9 or 20 pmol preformed SpCas9:gRNA (eGFP Site #1) complex were nucleofected. Approximately 20,000 transfected cells/well were plated in 4 replicates in a 96-well plate (Corning® 3904). Cells were incubated with the indicated amount of compound or DMSO for 24 h post transfection. A DMSO solution of compound (20 mM) was resuspended in the 10% FBS containing growth media and thoroughly mixed before adding to the cells. Cells were then fixed using 4% paraformaldehyde and imaged with the HCS NuclearMask™ Blue Stain (Life Technologies) as the nuclear counter-staining agent. Imaging was performed with an ImageXpress Micro automated microscope (Molecular Devices) at 10× magnification under three excitation channels (blue, green and red) acquiring nine sites per well. Images were analyzed using MetaXpress software and data were plotted using GraphPad Prism 6.
The Z′-value was calculated using the equation (1), where σ1 and σ2 are the standard deviations of DMSO control and SpCas9:gRNA control respectively. μ1 and μ2 are the mean % GFP^− cell population for DMSO control and SpCas9:gRNA control, respectively.

Sequence of SpCas9 (Q99ZW2 whole entry): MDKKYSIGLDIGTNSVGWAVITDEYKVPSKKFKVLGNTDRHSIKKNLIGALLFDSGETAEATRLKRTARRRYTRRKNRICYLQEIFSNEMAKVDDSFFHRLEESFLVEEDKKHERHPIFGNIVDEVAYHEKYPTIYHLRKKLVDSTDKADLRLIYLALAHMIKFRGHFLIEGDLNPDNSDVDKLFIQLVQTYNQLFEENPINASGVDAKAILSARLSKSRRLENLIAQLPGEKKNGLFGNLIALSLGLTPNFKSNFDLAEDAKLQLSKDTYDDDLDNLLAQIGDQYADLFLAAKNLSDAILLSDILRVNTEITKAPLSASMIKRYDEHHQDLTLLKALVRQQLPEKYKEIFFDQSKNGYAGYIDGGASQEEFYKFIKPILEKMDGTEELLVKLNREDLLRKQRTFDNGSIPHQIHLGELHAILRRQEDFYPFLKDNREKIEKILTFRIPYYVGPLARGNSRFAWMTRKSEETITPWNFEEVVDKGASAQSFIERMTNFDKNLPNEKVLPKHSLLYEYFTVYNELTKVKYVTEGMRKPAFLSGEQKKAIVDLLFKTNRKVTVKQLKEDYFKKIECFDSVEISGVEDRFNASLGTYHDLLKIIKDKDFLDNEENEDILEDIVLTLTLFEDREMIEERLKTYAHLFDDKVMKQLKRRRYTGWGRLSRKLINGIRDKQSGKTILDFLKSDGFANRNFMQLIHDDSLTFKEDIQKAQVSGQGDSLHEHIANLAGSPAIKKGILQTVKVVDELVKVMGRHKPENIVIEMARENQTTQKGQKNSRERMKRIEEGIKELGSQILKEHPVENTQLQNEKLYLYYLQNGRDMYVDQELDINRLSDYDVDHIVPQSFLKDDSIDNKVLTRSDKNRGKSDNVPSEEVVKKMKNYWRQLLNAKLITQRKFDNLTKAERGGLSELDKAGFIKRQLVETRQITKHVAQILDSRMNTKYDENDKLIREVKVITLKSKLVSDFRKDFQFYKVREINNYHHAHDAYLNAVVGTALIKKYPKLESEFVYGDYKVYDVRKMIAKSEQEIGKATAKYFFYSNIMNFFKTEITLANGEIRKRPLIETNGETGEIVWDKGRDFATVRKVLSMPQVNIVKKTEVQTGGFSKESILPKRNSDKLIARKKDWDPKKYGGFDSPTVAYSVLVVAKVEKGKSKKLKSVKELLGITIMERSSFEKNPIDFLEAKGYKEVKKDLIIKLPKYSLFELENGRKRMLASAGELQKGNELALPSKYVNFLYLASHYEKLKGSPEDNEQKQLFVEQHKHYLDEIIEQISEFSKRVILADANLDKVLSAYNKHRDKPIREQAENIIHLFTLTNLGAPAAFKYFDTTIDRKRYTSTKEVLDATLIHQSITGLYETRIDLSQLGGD

Row | SMILES | Average Inhibition activity | Inhibition activity Rep 1 | Inhibition activity Rep 2
1 | CN1c2ccc(C#Cc3ccccc3)cc2[C@@H]2[C@@H](CCN2S(=O)(=O)c2cn(C)cn2)[C@H]1CO [BRD-A34097118] | 60.1 | 50.1 | 70.1
2 | O=C(CC1CC1)N1CC[C@@H]2[C@H]1c1cc(-c3ccc(F)cc3)ccc1N[C@@H]2CO [BRD-K03427362] | 49.4 | 48.3 | 50.6
3 | COc1cccc(S(=O)(=O)N2CC[C@@H]3[C@H]2c2cc(C#Cc4cccnc4)ccc2N(C)[C@H]3CO)c1 [BRD-K04388421] | 51.2 | 49.1 | 53.3
4 | O=C(Cc1ccccc1)N1CC[C@@H]2[C@H](CO)Nc3ccc(-c4ccc(F)cc4)cc3[C@@H]21 [BRD-K05104277] | 65.0 | 71.6 | 58.4
5 | COCC(=O)N1CC[C@@H]2[C@H](CO)Nc3ccc(C#Cc4cccc(F)c4)cc3[C@@H]21 [BRD-K09759494] | 50.9 | 51.1 | 50.7
6 | Cc1ccccc1S(=O)(=O)N1CC[C@@H]2[C@H](CO)N(C)c3ccc(C#Cc4ccc(F)cc4)cc3[C@@H]21 [BRD-K11385710] | 51.1 | 55.7 | 46.5
7 | COc1cccc(-c2ccc3c(c2)[C@@H]2[C@@H](CCN2C(=O)c2cnccn2)[C@@H](CO)N3)c1 [BRD-K11943259] | 58.8 | 53.0 | 64.6
8 | CN1c2ccc(C#Cc3cccnc3)cc2[C@H]2[C@H](CCN2C(=O)C2CCCCC2)[C@H]1CO [BRD-K11970601] | 54.5 | 59.0 | 50.0
9 | O=S(=O)(c1cccc(F)c1)N1CC[C@@H]2[C@H](CO)Nc3ccc(C#Cc4ccccc4F)cc3[C@@H]21 [BRD-K12807496] | 60.8 | 50.9 | 70.7
10 | O=S(=O)(c1cccc(F)c1)N1CC[C@@H]2[C@H]1c1cc(C#Cc3ccccc3F)ccc1N[C@@H]2CO [BRD-K14474387] | 61.3 | 56.1 | 66.4
11 | COc1ccc(S(=O)(=O)N2CC[C@@H]3[C@@H](CO)N(C)c4ccc(-c5ccc(F)cc5)cc4[C@@H]32)cc1 [BRD-K16827616] | 60.5 | 76.4 | 44.6
12 | COc1ccc(-c2ccc3c(c2)[C@H]2[C@H](CCN2C(=O)Cc2ccncc2)[C@H](CO)N3)cc1 [BRD-K17925790] | 51.7 | 52.6 | 50.8
13 | COc1ccccc1CN1CC[C@@H]2[C@H]1c1cc(C#Cc3ccccc3)ccc1N[C@@H]2CO [BRD-K18260949] | 49.5 | 49.8 | 49.1
14 | CN1c2ccc(C#Cc3cccnc3)cc2[C@@H]2[C@@H](CCN2C(=O)c2cccc(F)c2)[C@@H]1CO [BRD-K18296007] | 64.7 | 69.6 | 59.7
15 | O=C(C1CCCCC1)N1CC[C@@H]2[C@H]1c1cc(Br)ccc1N[C@@H]2CO [BRD-K20055065] | 70.7 | 67.5 | 73.9
16 | COc1ccccc1-c1ccc2c(c1)[C@H]1[C@H](CCN1C(=O)CN1CCOCC1)[C@H](CO)N2C [BRD-K22244182] | 50.3 | 57.2 | 43.4
17 | COc1ccccc1C#Cc1ccc2c(c1)[C@H]1[C@H](CCN1C(=O)CN1CCOCC1)[C@H](CO)N2 [BRD-K26627503] | 56.9 | 47.5 | 66.3
18 | COc1cccc(S(=O)(=O)N2CC[C@@H]3[C@H](CO)N(C)c4ccc(C#Cc5cccnc5)cc4[C@@H]32)c1 [BRD-K29966477] | 57.5 | 50.1 | 64.8
19 | O=C(C1CC1)N1CC[C@@H]2[C@H](CO)Nc3ccc(Br)cc3[C@@H]21 [BRD-K31090697] | 48.0 | 46.0 | 49.9

Row | SMILES | Average Inhibition activity | Inhibition activity Rep 1 | Inhibition activity Rep 2
20 | CCC(=O)N1CC[C@H]2[C@@H]1c1cc(C#Cc3ccccc3OC)ccc1N(C)[C@H]2CO [BRD-K31513357] | 66.7 | 59.8 | 73.6
21 | CN1c2ccc(-c3ccccc3F)cc2[C@H]2[C@H](CCN2C(=O)NC2CCCCC2)[C@H]1CO [BRD-K35104316] | 49.1 | 54.2 | 44.1
22 | CN1c2ccc(C#Cc3cccnc3)cc2[C@@H]2[C@@H](CCN2S(=O)(=O)c2ccccc2F)[C@H]1CO [BRD-K39647256] | 54.9 | 51.3 | 58.4
23 | COc1ccccc1C#Cc1ccc2c(c1)[C@H]1NCC[C@H]1[C@@H](CO)N2 [BRD-K39870434] | 68.1 | 53.7 | 82.5
24 | CN1c2ccc(-c3ccc(C#N)cc3)cc2[C@@H]2[C@@H](CCN2S(=O)(=O)c2cccc(F)c2)[C@H]1CO [BRD-K40448176] | 51.6 | 52.1 | 51.2
25 | CCCC#Cc1ccc2c(c1)[C@@H]1[C@@H](CCN1S(=O)(=O)c1ccccc1OC)[C@@H](CO)N2 [BRD-K43330291] | 59.3 | 68.2 | 50.4
26 | CN1c2ccc(C#Cc3cccnc3)cc2[C@@H]2[C@@H](CCN2C(=O)c2cccc(F)c2)[C@H]1CO [BRD-K46446619] | 64.6 | 63.4 | 65.9
27 | O=S(=O)(c1ccc(F)cc1)N1CC[C@@H]2[C@H](CO)Nc3ccc(C#CC4CC4)cc3[C@@H]21 [BRD-K47320872] | 45.1 | 44.5 | 45.7
28 | CCC(=O)N1CC[C@@H]2[C@H]1c1cc(C#Cc3ccc(F)cc3)ccc1N[C@@H]2CO [BRD-K49114971] | 56.1 | 49.0 | 63.1
29 | Cc1ccc(S(=O)(=O)N2CC[C@@H]3[C@H](CO)Nc4ccc(-c5cccc(C(=O)N(C)C)c5)cc4[C@@H]32)cc1 [BRD-K51395794] | 53.9 | 46.5 | 61.3
30 | CN1c2ccc(-c3cccc(C#N)c3)cc2[C@H]2[C@H](CCN2C(=O)C2CCCCC2)[C@H]1CO [BRD-K53346571] | 52.7 | 49.1 | 56.3
31 | COc1ccc(C#Cc2ccc3c(c2)[C@H]2[C@H](CCN2C(=O)c2ccccc2F)[C@H](CO)N3C)cc1 [BRD-K56594357] | 57.9 | 55.8 | 59.9
32 | CN1c2ccc(C#Cc3cccnc3)cc2[C@H]2[C@H](CCN2S(=O)(=O)c2ccccc2F)[C@@H]1CO [BRD-K58893765] | 62.6 | 67.8 | 57.4
33 | O=C(C1CCCCC1)N1CC[C@@H]2[C@H](CO)Nc3ccc(Br)cc3[C@@H]21 [BRD-K60987574] | 60.9 | 59.5 | 62.2
34 | N#Cc1ccc(-c2ccc3c(c2)[C@H]2[C@H](CCN2C(=O)Cc2ccccc2)[C@@H](CO)N3)cc1 [BRD-K63155325] | 57.6 | 63.0 | 52.1
35 | O=S(=O)(c1cccc(F)c1)N1CC[C@H]2[C@H](CO)Nc3ccc(C#Cc4ccccc4F)cc3[C@H]21 [BRD-K67297693] | 72.2 | 64.3 | 80.1
36 | COc1ccc(S(=O)(=O)N2CC[C@@H]3[C@H](CO)N(C)c4ccc(-c5ccccc5F)cc4[C@@H]32)cc1 [BRD-K69451415] | 53.4 | 56.2 | 50.6
37 | COc1ccc(C#Cc2ccc3c(c2)[C@@H]2[C@@H](CCN2Cc2nccs2)[C@@H](CO)N3)cc1 [BRD-K70808105] | 51.5 | 47.4 | 55.6
38 | OC[C@@H]1Nc2ccc(C#Cc3cccnc3)cc2[C@H]2NCC[C@@H]12 [BRD-K71200053] | 67.6 | 54.6 | 80.6
